The test system of one assay is UCP2. The assay is described as follows: UCP2 expression in 3T3-L1 cells (western blot, UCP2/actin). Format: cell-based, mouse. As to conditions: 3T3-L1 cells, BK8644. The procedure:
Duplex siRNA corresponding to UCP2 gene was designed and chemically synthesized by Invitrogen. The following gene-specific sequences were used successfully: Si-UCP2 sense 5′-GCCUCUACGACUCUGUCAA-3′ and antisense […]. Transfection of siRNA was performed with Oligofectamine™ reagent (Invitrogen Life Technologies, CA) in 6-well plates. Briefly, Oligofectamine diluted in DMEM was applied to the duplex siRNA mixture, and the formulation was continued for 20 min to allow the Oligofectamine-oligonucleotide complex to form. Per well, 800 μl of plating medium and 10 ul of 20 μM duplex siRNA duplex siRNA formulated with 4 μl of Oligofectamine were applied in a final volume of 1 ml. Cells were then incubated at […] in a CO2 incubator for 4 hrs. […]
Adipocytes were harvested and sonicated in a homogenization buffer containing 50 mM Tris-HCl (PH 7.4), 250 mM sucrose, 1 mM EDTA, 1 mM dithiothreitol, 1% (v/v) Triton X, 10% protease cocktail (Sigma). […] Homogenate intrafranatant protein from equal numbers of cells (determined via protein quantitation using Bradford method as described previously) was boiled in Laemmli sample buffer and subject to 10% SDS-polyacrylamide gel electrophoresis (PAGE). […] Visualization was detected with chemiluminescence reagent, using the Western Blotting Luminal Reagent (Santa Cruz Biotechnology, CA).

The test system of the next assay is caspase-3. Kind of assay: Caspase-3 mRNA expression by real-time PCR in 3T3-L1 and UCP2-transfected 3T3-L1 adipocytes. Format: cell-based. How it is done:
(§1) 3T3-L1 preadipocytes were incubated at a density of 8000 cells/cm2 (10 cm2 dish) and grown in Dulbecco's modified Eagle's medium (DMEM) containing 10% FBS and antibiotics (adipocyte medium) at 37° C. in 5% CO2 in air. Confluent preadipocytes were induced to differentiate with a standard differentiation medium consisting of DMEM-F10 (1:1, vol/vol) medium supplemented with 1% FBS, 1 μM dexamethasone, IBMX (0.5 mM), and antibiotics (1% penicillin-streptomycin). Preadipocytes were maintained in this differentiation medium for 3 days and subsequently cultured in adipocyte medium. Cultures were re-fed every 2-3 days to allow 90% cells to reach full differentiation before they were chemically treated. Chemicals were freshly diluted in adipocyte medium before treatment. Cells were washed with fresh adipocyte medium, re-fed with medium containing the different treatments, and incubated at 37° C. in 5% CO2 in air before analysis. Cell viability was measured via trypan blue exclusion.
UCP2 full-length cDNAs were amplified by […] using mRNAs isolated from mouse white adipose tissues. The PCR primers for this amplification are shown as follows: UCP2 forward, 5′-[…]-3′, reverse, 5′-[…]-3′. The PCR products were then subcloned into pcDNA4/His expression vectors. The linearized constructs were transfected into 3T3-L1 preadipocytes using lipofectamine plus standard protocol (Invitrogen, Carlsbad, Calif.). After 48 h of transfection, cells were split and cultured in selective medium containing 400 ug/ml zeocin for the selection of resistant colonies. Cells were fed with selective medium every 3 days until resistant colonies could be identified. These resistant foci were picked, expanded, tested for expression, and frozen for future experiments.
A total cellular RNA isolation kit (Ambion, Austin, Tex.) was used to extract total RNA from 3T3-L1 cells according to the manufacturer's instructions.
Adipocyte caspase-1, caspase-3, Bcl-2, and Bax mRNA were quantitatively measured using a Smart Cycler Real Time PCR System (Cepheid, Sunnyvale, Calif.) with a TaqMan 1000 Core Reagent Kit (Applied Biosystems, Branchburg, N.J.). The primers and probe sets were ordered from Applied Biosystems TaqMan Assays-on-Demand Gene Expression primers and probe set collection according to the manufacturer's instructions. Pooled 3T3-L1 adipocyte total RNA was serial-diluted in the range of 1.5625-25 ng and used to establish a standard curve; total RNAs for unknown samples were also diluted in this range. Reactions of quantitative RT-PCR for standards and unknown samples were Cepheid, Sunnyvale, Calif.) and TaqMan Real Time PCR Core Kit. The mRNA quantitation for each sample was further normalized using the corresponding 18 s quantitation, with a forward primer, 5′-[…]-3′, and a reverse primer, 5′-[…]-3′.
3T3-L1 preadipocytes were incubated at a density of 8000 cells/cm2 (10 cm2 dish) and grown in Dulbecco's modified Eagle's medium (DMEM) containing 10% FBS and antibiotics at 37° C. in 5% CO2. Confluent preadipocytes were induced to differentiate with a standard differentiation medium consisting of DMEM-F 10 (1:1, vol/vol) medium supplemented with 1% FBS, 1 μM dexamethasone, IBMX (0.5 mM) and antibiotics (1% penicillin/streptomycin). Preadipocytes were maintained in this differentiation medium for 3 days and subsequently cultured in adipocyte medium. Cultures were re-fed every 2-3 days to allow 90% cells to reach fully differentiation before conducting chemical treatment. Chemicals were freshly diluted in adipocyte medium before treatment. Cells were washed with fresh adipocyte medium, re-fed with medium containing the different treatments, and incubated at 37° C. in 5% CO2 in air before analysis. Cell viability was measured via trypan blue exclusion.
Adipocytes were incubated with adipocyte medium for 24 h with or without GDP, BK 8644, GDP plus BK8644 before total RNA extraction. […]

The test system of the next assay is Bcl-2/Bax. Kind of assay: Bcl-2/Bax expression ratio by real-time PCR in 3T3-L1 and UCP2-transfected 3T3-L1 adipocytes. As to conditions: 24 h, P<0.01. Format: cell-based. How it is done: as §1
(§2) UCP2 full-length cDNAs were amplified by […] using mRNAs isolated from mouse white adipose tissues. The PCR primers for this amplification are shown as follows: UCP2 forward, 5′-[…]-3′, reverse, 5′-[…]-3′. The PCR products were then subcloned into pcDNA4/His expression vectors. The linearized constructs were transfected into 3T3-L1 preadipocytes using lipofectamine plus standard protocol (Invitrogen, Carlsbad, Calif.). After 48 h of transfection, cells were split and cultured in selective medium containing 400 ug/ml zeocin for the selection of resistant colonies. […]
(§3) Adipocyte caspase-1, caspase-3, Bcl-2, and Bax mRNA were quantitatively measured using a Smart Cycler Real Time PCR System (Cepheid, Sunnyvale, Calif.) with a TaqMan 1000 Core Reagent Kit (Applied Biosystems, Branchburg, N.J.). […] Reactions of quantitative RT-PCR for standards and unknown samples were Cepheid, Sunnyvale, Calif.) and TaqMan Real Time PCR Core Kit. The mRNA quantitation for each sample was further normalized using the corresponding 18 s quantitation, with a forward primer, 5′-[…]-3′, and a reverse primer, 5′-[…]-3′.

A further assay has as its system 3T3-L1 and L1-UCP2 cells. The assay is described as follows: Adipocyte apoptosis in 3T3-L1 and L1-UCP2 cells. The class given is cell-based. How it is done:
as §1, with “Cells were washed with fresh adipocyte medium, re-fed with medium containing the different treatments, and incubated at 37° C. in 5% CO2 in air before analysis.” left out, “exclusion. […]” for “exclusion.”
as §3

Another assay has as its system caspase-1. Kind of assay: Caspase-1 mRNA expression by real-time PCR in 3T3-L1 and UCP2-transfected 3T3-L1 adipocytes. The class given is cell-based. The following applies: 24 h, control and UCP2-transfected 3T3-L1 cells. The procedure:
as §1, §2, §3

For `COC(=O)C1=C(C)NC(C)=C([N+](=O)[O-])C1c1ccccc1C(F)(F)F` (stereo not shown) [Bay K 8644], in the assay with UCP2, the “effect on UCP2 expression” value was “no effect”. In addition, the caspase-3 expression entry in the assay on caspase-3 (3T3-L1 cells, Bay K 8644 5-100 nM range of FIG. 15) is “dose-dependently”.
Consider `C=C1/C(=C\C=C2/CCC[C@]3(C)[C@@H]([C@H](C)CCCC(C)(C)O)CC[C@@H]23)C[C@@H](O)C[C@@H]1O` [1α,25-(OH)2-D3, 1α,25-dihydroxyvitamin D3], for which the Bcl-2/Bax expression ratio result in the assay on Bcl-2/Bax (high dose 100 nM, control and UCP2-transfected 3T3-L1 cells) was “significant decrease”; in the assay with Bcl-2/Bax (lower levels (0.1-10 nM)) it was “dose-dependent increase”. For the same compound, the apoptosis result in the assay on 3T3-L1 and L1-UCP2 cells (high dose (100 nM), 3T3-L1 and L1-UCP2 cells, P<0.05) is reported as “stimulated”. The UCP2 overexpression-induced apoptosis result in the assay with 3T3-L1 and L1-UCP2 cells (physiological doses (0.1-10 nM), L1-UCP2 cells, P<0.01) was “protected”. The caspase-3 expression entry in the assay on caspase-3 (high dose 100 nM, 24 h, control and UCP2-transfected 3T3-L1 cells, P<0.01) is listed as “stimulated”; in the assay with caspase-3 (physiological low doses 0.1 nM, 1 nM, 5 nM, 10 nM, 24 h, control and UCP2-transfected 3T3-L1 cells, P<0.05) it was “inhibited”. For the same compound, the caspase-1 expression result with caspase-1 (high dose 100 nM, P<0.01) is “stimulated”; with caspase-1 (physiological low doses 0.1 nM, 1 nM, 5 nM, 10 nM, P<0.05), “inhibited”.

The values are drawn from US20070286886A1, “Materials And Methods For Inducing Apoptosis In Adipocytes” (University of Tennessee Research Foundation, priority 2004, published 2007).
